Reference: patent publication US20250206747A1, “COELENTERAZINE ANALOGUES” (priority 2023, published 2025)
Like-named read-outs stand apart in the source and are kept apart here.

What was measured:
NANOLUC® luciferase [1] = molecular target: T1, NANOLUC® luciferase (Oplophorus gracilirostris, UniProt Q9GV45, A31E/A60N/A81I/F95D/I117V/K70R/L54V/L99Q/M102K/N193R/P142E/Q151K/Q38R/Q45L/V71I/Y165I); test: Luminescent spectra of NANOLUC luciferase in the presence of coelenterazine analogue (peak emission); type: biochemical; conditions: for λ max (nm): peak luminescence emission with NANOLUC luciferase
T1 sequence (Q9GV45 other isoform, or with tags, fused parts or gaps with the stated changes): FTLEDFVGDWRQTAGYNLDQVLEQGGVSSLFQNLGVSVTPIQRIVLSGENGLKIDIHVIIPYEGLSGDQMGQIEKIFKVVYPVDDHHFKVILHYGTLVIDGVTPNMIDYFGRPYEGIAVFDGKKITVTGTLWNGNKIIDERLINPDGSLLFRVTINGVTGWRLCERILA
Description: FIGS. 1A-1B show kinetic and spectral properties of coelenterazine analogues. (FIG. 1A) Michaelis-Menten analysis determining the relative luminescence produced by 0.01 nM NANOLUC® luciferase at various concentrations of coelenterazine analogues. […] (FIG. 1B) Luminescent spectra of 0.5 nM NANOLUC® luciferase in the presence of 20 μM coelenterazine analogue.
Experiments were conducted during the development of embodiments herein to test the effect of derivatization on the biochemical properties of novel coelenterazine analogues. Properties tested include the analogues' ability to be utilized by NANOLUC® luciferase, as assessed through the determination of Vmax and KM, as well as the peak wavelength of luminescence emission.

NANOLUC® luciferase [2] = molecular target: T1, NANOLUC® luciferase; test: Michaelis-Menten analysis of relative luminescence produced by NANOLUC luciferase at various concentrations of coelenterazine analogues; type: biochemical; conditions: 0.01 nM NANOLUC luciferase; for Vmax (norm): normalised to furimazine = 1; for Km: read-out: Km

O=C1C(Cc2ccco2)N=C2C(c3cncc(Cl)c3)=NC(c3ccccc3)=CN12 (stereo not shown) [Compound 9812, 8-(5-chloropyridin-3-yl)-2-(furan-2-ylmethyl)-6-phenylimidazo[1,2-a]pyrazin-3(7H)-one]
shift of peak emission relative to compound 7314 (NANOLUC® luciferase [1]; reacted with NANOLUC luciferase, chloropyridin group in place of phenyl ring of 7314): red-shift the peak emission

O=c1c(Cc2ccco2)nc2c(-c3cnnc(Cl)c3)[nH]c(-c3ccccc3)cn1-2 [Compound 9894, 8-(6-Chloropyridazin-4-yl)-2-(furan-2-ylmethyl)-6-phenylimidazo[1,2-a]pyrazin-3(7H)-one]
peak emission (λem) (NANOLUC® luciferase [1]; Scheme 1, 0.5 nM NANOLUC luciferase, 20 μM coelenterazine analogue): 622 nm

O=c1c(Cc2ccco2)nc2c(-c3cnnc(Cl)c3)[nH]c(-c3cccc(F)c3)cn1-2 [Compound 10299]
Vmax (norm) (NANOLUC® luciferase [2]; Table 1): 0.000505
λ max (nm) (NANOLUC® luciferase [1]; Table 1): 622 nm

COc1cccc(-c2cn3c(=O)c(Cc4ccco4)nc-3c(-c3cnnc(Cl)c3)[nH]2)c1 [Compound 10300]
Vmax (norm) (NANOLUC® luciferase [2]; Table 1): 0.000505

O=c1c(Cc2ccco2)nc2c(-c3cnnc(Cl)c3)[nH]c(-c3cccc(F)c3F)cn1-2 [Compound 10427, 8-(6-chloropyridazin-4-yl)-6-(2,3-difluorophenyl)-2-(furan-2-ylmethyl)imidazo[1,2-a]pyrazin-3(7H)-one]
Vmax (norm) (NANOLUC® luciferase [2]; Table 2): 0.0015
λ max (nm) (NANOLUC® luciferase [1]; Table 2): 600 nm

O=c1c(Cc2ccco2)nc2c(Cc3ccccc3)[nH]c(-c3ccccc3)cn1-2 [Furimazine, reference compound]
Vmax (norm) (NANOLUC® luciferase [2]; Table 1): 1
Km (NANOLUC® luciferase [2]; Table 1): 0.23 µM
Vmax (norm) (NANOLUC® luciferase [2]; Table 2): 1
Km (NANOLUC® luciferase [2]; Table 2): 0.56 µM
λ max (nm) (NANOLUC® luciferase [1]; Table 1): 466 nm
λ max (nm) (NANOLUC® luciferase [1]; Table 2): 462 nm
